Assay results reported in ChEMBL document CHEMBL3885861, “Open TG-GATES”.

Organism: Rattus norvegicus
Test: Open TG-GATES - Regimen: Daily Repeat
Type: toxicity, organism-based, Sprague-Dawley
Design: regimen Daily Repeat, gender Male, age 6 weeks
Conditions: in vivo, po, 15 mg/kg, route gavage, dose level Middle; for APTT / Bas / Eos / Fbg / Hb / Ht / Lym / MCH / MCHC / MCV / Mono / Neu / PT / Plat / RBC / Ret / WBC: tissue Blood; for KIDNEY_L / KIDNEY_R / KIDNEY_TOTAL: tissue Kidney; for LIVER: tissue Liver; for A/G / ALP / ALT / AST / BUN / CRE / Ca / Cl / DBIL / GLC / IP / K / LDH / Na / PL / RALB / TBIL / TC / TG / TP / gamma-GTP: tissue Plasma

`CC(=N)S` [THIOACETAMIDE] showed a TERMINAL_BW (72 h, time 3 day) of 220.4 g, an APTT (72 h, time 3 day) of 16.6 s and a Bas (72 h, time 3 day) of 0%. It also gave an Eos (72 h, time 3 day) of 1%, a Fbg (72 h, time 3 day) of 254.2 mg/dL and a Hb (72 h, time 3 day) of 14 g/dL. For the same molecule, the Ht (72 h, time 3 day) was 42.5%, the Lym (72 h, time 3 day) was 84% and the MCH (72 h, time 3 day) was 20.9 pg. For the same molecule, the MCHC (72 h, time 3 day) was 33.1%, the MCV (72 h, time 3 day) was 63.2 fL and the Mono (72 h, time 3 day) was 5.2%. It also gave a Neu (72 h, time 3 day) of 9.6%, a PT (72 h, time 3 day) of 12.2 s and a Plat (72 h, time 3 day) of 113 x10_4/uL. The RBC (72 h, time 3 day) was 672.4 x10_4/ul, the Ret (72 h, time 3 day) was 5.5% and the WBC (72 h, time 3 day) was 167.1 x10_2/uL. It also gave a KIDNEY_L (72 h, time 3 day) of 1 g, a KIDNEY_R (72 h, time 3 day) of 1 g and a KIDNEY_TOTAL (72 h, time 3 day) of 1.9 g. It also gave an LIVER (72 h, time 3 day) of 11.1 g, an A/G (72 h, time 3 day) of 2.1 and an ALP (72 h, time 3 day) of 896 IU/L. It also gave an ALT (72 h, time 3 day) of 29.2 IU/L, an AST (72 h, time 3 day) of 57.2 IU/L and a BUN (72 h, time 3 day) of 17 mg/dL. For the same molecule, the CRE (72 h, time 3 day) was 0.5 mg/dL, the Ca (72 h, time 3 day) was 10.5 mg/dL and the Cl (72 h, time 3 day) was 105.8 meq/L. It also gave a DBIL (72 h, time 3 day) of 0.02 mg/dL, a GLC (72 h, time 3 day) of 176.2 mg/dL and an IP (72 h, time 3 day) of 7.5 mg/dL. It also gave a K (72 h, time 3 day) of 5 meq/L, an LDH (72 h, time 3 day) of 92.8 IU/L and a Na (72 h, time 3 day) of 137.6 meq/L. For the same molecule, the PL (72 h, time 3 day) was 159.4 mg/dL, the RALB (72 h, time 3 day) was 3.9 g/dL and the TBIL (72 h, time 3 day) was 0.3 mg/dL. For the same molecule, the TC (72 h, time 3 day) was 76.4 mg/dL, the TG (72 h, time 3 day) was 148 mg/dL and the TP (72 h, time 3 day) was 5.8 g/dL. The gamma-GTP (72 h, time 3 day) was 2.4 IU/L, the TERMINAL_BW ([…], time 7 day) was 248.4 g and the TERMINAL_BW ([…], time 14 day) was 276.3 g. It also gave a TERMINAL_BW ([…], time 28 day) of 324.2 g, an APTT ([…], time 7 day) of 16.4 s and a Bas ([…], time 7 day) of 0%. The Eos ([…], time 7 day) was 1%, the Fbg ([…], time 7 day) was 247.2 mg/dL and the Hb ([…], time 7 day) was 13.9 g/dL. The Ht ([…], time 7 day) was 42.1%, the Lym ([…], time 7 day) was 82.8% and the MCH ([…], time 7 day) was 20.8 pg. For the same molecule, the MCHC ([…], time 7 day) was 33%, the MCV ([…], time 7 day) was 63 fL and the Mono ([…], time 7 day) was 5.4%. For the same molecule, the Neu ([…], time 7 day) was 11.2%, the PT ([…], time 7 day) was 12.7 s and the Plat ([…], time 7 day) was 108.4 x10_4/uL. The RBC ([…], time 7 day) was 668.4 x10_4/ul, the Ret ([…], time 7 day) was 4.5% and the WBC ([…], time 7 day) was 170.4 x10_2/uL. For the same molecule, the APTT ([…], time 14 day) was 16.4 s, the Bas ([…], time 14 day) was 0% and the Eos ([…], time 14 day) was 1%. It also gave a Fbg ([…], time 14 day) of 239.8 mg/dL, a Hb ([…], time 14 day) of 14.7 g/dL and a Ht ([…], time 14 day) of 44%. The Lym ([…], time 14 day) was 79.8%, the MCH ([…], time 14 day) was 19.7 pg and the MCHC ([…], time 14 day) was 33.3%. The MCV ([…], time 14 day) was 59.3 fL, the Mono ([…], time 14 day) was 7.6% and the Neu ([…], time 14 day) was 11.8%. The PT ([…], time 14 day) was 13 s, the Plat ([…], time 14 day) was 111.2 x10_4/uL and the RBC ([…], time 14 day) was 743.4 x10_4/ul. The Ret ([…], time 14 day) was 3.5%, the WBC ([…], time 14 day) was 202.6 x10_2/uL and the APTT ([…], time 28 day) was 16.6 s. For the same molecule, the Bas ([…], time 28 day) was 0%, the Eos ([…], time 28 day) was 1% and the Fbg ([…], time 28 day) was 240.2 mg/dL. It also gave a Hb ([…], time 28 day) of 15.1 g/dL, a Ht ([…], time 28 day) of 44.7% and a Lym ([…], time 28 day) of 75.4%. The MCH ([…], time 28 day) was 19 pg, the MCHC ([…], time 28 day) was 33.9% and the MCV ([…], time 28 day) was 56.1 fL. For the same molecule, the Mono ([…], time 28 day) was 8.6%, the Neu ([…], time 28 day) was 14.8% and the PT ([…], time 28 day) was 11.9 s. It also gave a Plat ([…], time 28 day) of 116.1 x10_4/uL, an RBC ([…], time 28 day) of 798.6 x10_4/ul and a Ret ([…], time 28 day) of 3.2%. For the same molecule, the WBC ([…], time 28 day) was 149.2 x10_2/uL, the KIDNEY_L ([…], time 7 day) was 1.1 g and the KIDNEY_R ([…], time 7 day) was 1.1 g. It also gave a KIDNEY_TOTAL ([…], time 7 day) of 2.2 g, a KIDNEY_L ([…], time 14 day) of 1.2 g and a KIDNEY_R ([…], time 14 day) of 1.2 g. For the same molecule, the KIDNEY_TOTAL ([…], time 14 day) was 2.3 g, the KIDNEY_L ([…], time 28 day) was 1.2 g and the KIDNEY_R ([…], time 28 day) was 1.2 g. The KIDNEY_TOTAL ([…], time 28 day) was 2.4 g, the LIVER ([…], time 7 day) was 12.8 g and the LIVER ([…], time 14 day) was 12.7 g. For the same molecule, the LIVER ([…], time 28 day) was 14.1 g, the A/G ([…], time 7 day) was 2 and the ALP ([…], time 7 day) was 926.6 IU/L. For the same molecule, the ALT ([…], time 7 day) was 29.4 IU/L, the AST ([…], time 7 day) was 54.2 IU/L and the BUN ([…], time 7 day) was 19 mg/dL. It also gave a CRE ([…], time 7 day) of 0.6 mg/dL, a Ca ([…], time 7 day) of 10.5 mg/dL and a Cl ([…], time 7 day) of 105.6 meq/L. It also gave a DBIL ([…], time 7 day) of 0.016 mg/dL, a GLC ([…], time 7 day) of 172.4 mg/dL and an IP ([…], time 7 day) of 7.9 mg/dL. The K ([…], time 7 day) was 5.1 meq/L, the LDH ([…], time 7 day) was 97.4 IU/L and the Na ([…], time 7 day) was 136.2 meq/L. The PL ([…], time 7 day) was 152.6 mg/dL, the RALB ([…], time 7 day) was 4 g/dL and the TBIL ([…], time 7 day) was 0.3 mg/dL. It also gave a TC ([…], time 7 day) of 75.6 mg/dL, a TG ([…], time 7 day) of 114.8 mg/dL and a TP ([…], time 7 day) of 5.9 g/dL. The gamma-GTP ([…], time 7 day) was 2.4 IU/L, the A/G ([…], time 14 day) was 2.1 and the ALP ([…], time 14 day) was 760.2 IU/L. It also gave an ALT ([…], time 14 day) of 26.2 IU/L, an AST ([…], time 14 day) of 47.2 IU/L and a BUN ([…], time 14 day) of 20.4 mg/dL. For the same molecule, the CRE ([…], time 14 day) was 0.6 mg/dL, the Ca ([…], time 14 day) was 10.3 mg/dL and the Cl ([…], time 14 day) was 104.8 meq/L. The DBIL ([…], time 14 day) was 0.05 mg/dL, the GLC ([…], time 14 day) was 173.8 mg/dL and the IP ([…], time 14 day) was 7.3 mg/dL. For the same molecule, the K ([…], time 14 day) was 4.8 meq/L, the LDH ([…], time 14 day) was 90.2 IU/L and the Na ([…], time 14 day) was 134.2 meq/L. The PL ([…], time 14 day) was 127 mg/dL, the RALB ([…], time 14 day) was 3.9 g/dL and the TBIL ([…], time 14 day) was 0.3 mg/dL. It also gave a TC ([…], time 14 day) of 59.4 mg/dL, a TG ([…], time 14 day) of 87.4 mg/dL and a TP ([…], time 14 day) of 5.8 g/dL. For the same molecule, the gamma-GTP ([…], time 14 day) was 1.6 IU/L, the A/G ([…], time 28 day) was 2 and the ALP ([…], time 28 day) was 660.6 IU/L. The ALT ([…], time 28 day) was 29.8 IU/L, the AST ([…], time 28 day) was 35.4 IU/L and the BUN ([…], time 28 day) was 20.4 mg/dL. The CRE ([…], time 28 day) was 0.6 mg/dL, the Ca ([…], time 28 day) was 10 mg/dL and the Cl ([…], time 28 day) was 105.4 meq/L. The DBIL ([…], time 28 day) was 0.014 mg/dL, the GLC ([…], time 28 day) was 164.8 mg/dL and the IP ([…], time 28 day) was 6.3 mg/dL. It also gave a K ([…], time 28 day) of 4.5 meq/L, an LDH ([…], time 28 day) of 114.6 IU/L and a Na ([…], time 28 day) of 134 meq/L. The PL ([…], time 28 day) was 125.4 mg/dL, the RALB ([…], time 28 day) was 3.9 g/dL and the TBIL ([…], time 28 day) was 0.2 mg/dL. For the same molecule, the TC ([…], time 28 day) was 60.4 mg/dL, the TG ([…], time 28 day) was 62.4 mg/dL and the TP ([…], time 28 day) was 5.8 g/dL. For the same molecule, the gamma-GTP ([…], time 28 day) was 1.6 IU/L.
